Like-named read-outs stand apart in the source and are kept apart here.
Legend:
Anopheles arabiensis = assay: Larvicidal screening (WHO protocol), 3rd instar larvae; assay type: in vivo
Procedure: Anopheles arabiensis was used in the study according to the protocol described by WHO (1975) guidelines in an insectary simulating the temperature (27.5° C.), humidity (70%), and lighting (12/12) of a malaria-endemic environment. One mL of test compound (1 mg/mL) was added to 1 mL of acetone and followed by […] of distilled water to obtain a final concentration of 4 μg/mL. Thirty individuals of 3rd instar larvae were introduced into a container. Negative control was set up using the solvent (acetone) and distilled water, and a positive control included Temephos, which is an active emulsified organophosphate larvicidal used by malaria control programs. Larval mortality was examined for each container separately for 24 h and fed specially made cat food that contained less oil/fat content. The percentage of mortality was determined relative to the initial number of larvae exposed.
Differences in larval mortality between treatments were assessed with generalized linear models using a quasi-Poisson link function. Anopheles arabiensis mortality was the dependent variable, while fixed effects were test compounds and observation period (24 and 48 h). A p-value <0.05 was considered statistically significant. Throughout the text, the results are presented as the adjusted mean the standard error.

| SMILES | mortality at 4 µg/mL (Anopheles arabiensis; 24 h, read-out: Mortality 24 h) [%] | mortality at 4 µg/mL (Anopheles arabiensis; 48 h, read-out: Mortality 48 h) [%] | melting point [°C] |
| --- | --- | --- | --- |
| Cc1ccc2oc(=O)cc(CSc3nc4ccccc4o3)c2c1 [Compound 3c, 4-[(1,3-Benzoxazol-2-ylsulfanyl)methyl]-6-methyl-2H-chromen-2-one] | 70.1 ± 2.29 | 75.8 ± 2.21 |  |
| COc1ccc2nc(SCc3cc(=O)oc4ccc(C)cc34)[nH]c2c1 |  |  | 176 to 178 |
| CC(C)(C)c1ccc2oc(=O)cc(CSc3nc4ccccc4s3)c2c1 [Compound 3i, 4-[(1,3-Benzothiazol-2-ylsulfanyl)methyl]-6 tert-butyl-2H-chromen-2-one] | 89.9 ± 2.44 | 94.7 ± 2.11 |  |
| Cc1nnc(SCc2cc(=O)oc3ccc(C(C)(C)C)cc23)s1 [Compound 3j, 4-{[(5-Methyl-1,3,4-thiadiazol-2-yl)sulfanyl]methyl}-6 tert-butyl-2H-chromen-2-one] | 94.7 ± 2.61 | 95.1 ± 2.09 |  |
| Cc1ccc2oc(=O)cc(CSc3nc4ccccc4s3)c2c1 |  |  | 192 to 194 |
| Cc1ccc2oc(=O)cc(CSc3nnc(C)s3)c2c1 [Compound 3e, 6-Methyl-4-{[(5-methyl-1,3,4-thiadiazol-2-yl)sulfanyl]methyl}-2H-chromen-2-one] | 77.2 ± 2.02 | 82.2 ± 1.93 |  |
| Cc1ccc2oc(=O)cc(CSc3nc4ccccc4[nH]3)c2c1 |  |  | 190 to 192 |
| COP(=S)(OC)Oc1ccc(Sc2ccc(OP(=S)(OC)OC)cc2)cc1 [Temephos, reference compound] | 98.9 ± 2.7 | 100 ± 2.71 |  |
| CC(C)(C)c1ccc2oc(=O)cc(CSc3nc4ccccc4o3)c2c1 |  |  | 212 to 214 |
| CC(C)(C)c1ccc2oc(=O)cc(CSc3nc4ccccc4[nH]3)c2c1 |  |  | 189 to 190 |

— US11970489B1, “4-[(substituted 1H-benzimidazol-2-ylsulfanyl)methyl]-6-substituted-2H-chromen-2-ones as larvicidal agents” (KING FAISAL UNIVERSITY, priority 2023, dated 2024)
